In brackets after ≈: the same amount, converted by molar mass. Read-outs that look alike come from different tables or passages of the source.
Assays:
Format in all cases: cell-based
[1] = tested on: P. aeruginosa ΔmexAB-OprM (an efflux pump knockout); assay: broth microdilution MIC assay, P. aeruginosa ΔmexAB-OprM; conditions: Pseudomonas aeruginosa, read-out: MIC, P. aeruginosa ΔmexAB-OprM
Summary of the method: (§1)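 CLSI broth microdilution in cation-adjusted Mueller-Hinton broth: colonies from Mueller Hinton II agar grown 3-5 h at 37° C, inoculum set by OD600 to 5×10^5 CFU/mL final. Compounds in 2-fold serial dilutions; plates incubated 16-20 hours at 37° C. MIC read visually as lowest concentration without growth.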

S. aureus USA 300 = assay: broth microdilution MIC assay, S. aureus USA300; conditions: Staphylococcus aureus
Summary of the method: as §1

[2] = tested on: S. aureus ATCC 33591 (methicillin-resistant); assay: broth microdilution MIC assay, S. aureus 33591; conditions: Staphylococcus aureus
Summary of the method: as §1

[3] = tested on: P. aeruginosa 35151 (hyper-permeable strain); assay: broth microdilution MIC assay, P. aeruginosa 35151; conditions: Pseudomonas aeruginosa, read-out: MIC, P. aeruginosa 35151
Summary of the method: as §1

[4] = tested on: P. aeruginosa ATCC 27853 (wild-type/QC strain); assay: broth microdilution MIC assay, P. aeruginosa 27853
Summary of the method: as §1

P. aeruginosa Paeβ-17 = assay: broth microdilution MIC assay, P. aeruginosa Paeβ-17; conditions: Pseudomonas aeruginosa, read-out: MIC, P. aeruginosa Paeβ-17
Summary of the method: as §1

[5] = tested on: E. coli ATCC 25922 (wild-type/QC strain); assay: broth microdilution MIC assay, E. coli 25922
Summary of the method: as §1

S. aureus USA 600 = assay: broth microdilution MIC assay, S. aureus USA600; conditions: Staphylococcus aureus
Summary of the method: as §1

[6] = S. aureus USA300 (MRSA), read-out: MIC, S. aureus USA300
[7] = ATCC33591, S. aureus 33591, methicillin-resistant, read-out: MIC, S. aureus 33591
[8] = Pseudomonas aeruginosa, ATCC27853; read-out: MIC, P. aeruginosa 27853
[9] = Escherichia coli, ATCC25922; read-out: MIC, E. coli 25922
[10] = S. aureus USA600 (MRSA), read-out: MIC, S. aureus USA600

## C[C@@H](O)[C@H]1C(=O)N2C(C(=O)O)=C(S[C@H]3C[C@@H](N[C@H]4CC[C@H](NC(=N)N)CC4)C3)[C@H](C)[C@H]12 [Example 52, (4R,5S,6S)-3-(((1S,3S)-3-(((1R,4S)-4-guanidinocyclohexyl)amino)cyclobutyl)thio)-6-((R)-1-hydroxyethyl)-4-methyl-7-oxo-1-azabicyclo[3.2.0]hept-2-ene-2-carboxylic acid]
[1]
  MIC: 1 to 4 µg/mL (≈ 2.21 to 8.86 µM)
S. aureus USA 300; [6]
  MIC: 1 to 4 µg/mL (≈ 2.21 to 8.86 µM)
[2]; [7]
  MIC: 1 to 4 µg/mL (≈ 2.21 to 8.86 µM)
[3]
  MIC: < 1 µg/mL
[4]; [8]
  MIC: 1 to 4 µg/mL (≈ 2.21 to 8.86 µM)
P. aeruginosa Paeβ-17
  MIC: 8 to 32 µg/mL (≈ 17.7 to 70.9 µM)
[5]; [9]
  MIC: < 1 µg/mL
S. aureus USA 600; [10]
  MIC: < 1 µg/mL

## C[C@@H](O)[C@H]1C(=O)N2C(C(=O)O)=C(S[C@@H]3CC[C@@H](NC4CCNCC4)C3)[C@H](C)[C@H]12 [Example 53, (4R,5S,6S)-6-((R)-1-hydroxyethyl)-4-methyl-7-oxo-3-(((1R,3R)-3-(piperidin-4-ylamino)cyclopentyl)thio)-1-azabicyclo[3.2.0]hept-2-ene-2-carboxylic acid]
[1]
  MIC: 1 to 4 µg/mL (≈ 2.44 to 9.77 µM)
S. aureus USA 300; [6]
  MIC: 1 to 4 µg/mL (≈ 2.44 to 9.77 µM)
[2]; [7]
  MIC: 8 to 32 µg/mL (≈ 19.5 to 78.1 µM)
[3]
  MIC: < 1 µg/mL
[4]; [8]
  MIC: 8 to 32 µg/mL (≈ 19.5 to 78.1 µM)
P. aeruginosa Paeβ-17
  MIC: 8 to 32 µg/mL (≈ 19.5 to 78.1 µM)
[5]; [9]
  MIC: < 1 µg/mL
S. aureus USA 600; [10]
  MIC: 1 to 4 µg/mL (≈ 2.44 to 9.77 µM)

## C[C@@H](O)[C@H]1C(=O)N2C(C(=O)O)=C(S[C@H]3C[C@@H](N4CCC(N)CC4)C3)[C@H](C)[C@H]12 [Example 54]
[1]
  MIC: 1 to 4 µg/mL (≈ 2.53 to 10.1 µM)
S. aureus USA 300; MRSA / USA300, read-out: MIC, S. aureus USA300
  MIC: 8 to 32 µg/mL (≈ 20.2 to 80.9 µM)
[2]; ATCC33591, read-out: MIC, S. aureus 33591
  MIC: 8 to 32 µg/mL (≈ 20.2 to 80.9 µM)
[3]
  MIC: < 1 µg/mL
[4]; Pseudomonas aeruginosa, ATCC27853, read-out: MIC, P. aeruginosa 27853
  MIC: 8 to 32 µg/mL (≈ 20.2 to 80.9 µM)
P. aeruginosa Paeβ-17
  MIC: 8 to 32 µg/mL (≈ 20.2 to 80.9 µM)
[5]; Escherichia coli, ATCC25922, read-out: MIC, E. coli 25922
  MIC: < 1 µg/mL
S. aureus USA 600; MRSA / USA600, read-out: MIC, S. aureus USA600
  MIC: 1 to 4 µg/mL (≈ 2.53 to 10.1 µM)

## C[C@@H](O)[C@H]1C(=O)N2C(C(=O)O)=C(S[C@@H]3CC[C@@H](NC4CCN(C(=N)N)CC4)C3)[C@H](C)[C@H]12 [Example 55, (4R,5S,6S)-3-(((1R,3R)-3-((1-carbamimidoylpiperidin-4-yl)amino)cyclopentyl)thio)-6-((R)-1-hydroxyethyl)-4-methyl-7-oxo-1-azabicyclo[3.2.0]hept-2-ene-2-carboxylic acid]
[1]
  MIC: 1 to 4 µg/mL (≈ 2.21 to 8.86 µM)
S. aureus USA 300; [6]
  MIC: 1 to 4 µg/mL (≈ 2.21 to 8.86 µM)
[2]; [7]
  MIC: 1 to 4 µg/mL (≈ 2.21 to 8.86 µM)
[3]
  MIC: < 1 µg/mL
[4]; [8]
  MIC: 8 to 32 µg/mL (≈ 17.7 to 70.9 µM)
P. aeruginosa Paeβ-17
  MIC: 8 to 32 µg/mL (≈ 17.7 to 70.9 µM)
[5]; [9]
  MIC: < 1 µg/mL
S. aureus USA 600; [10]
  MIC: 1 to 4 µg/mL (≈ 2.21 to 8.86 µM)

## C[C@@H](O)[C@H]1C(=O)N2C(C(=O)O)=C(S[C@@H]3CCN(C[C@H]4CC[C@H](N)CC4)C3)[C@H](C)[C@H]12 [Example 56, (4R,5S,6S)-3-(((R)-1-(((1R,4R)-4-aminocyclohexyl)methyl)pyrrolidin-3-yl)thio)-6-((R)-1-hydroxyethyl)-4-methyl-7-oxo-1-azabicyclo[3.2.0]hept-2-ene-2-carboxylic acid]
[1]
  MIC: 1 to 4 µg/mL (≈ 2.36 to 9.44 µM)
S. aureus USA 300; [6]
  MIC: 1 to 4 µg/mL (≈ 2.36 to 9.44 µM)
[2]; [7]
  MIC: 1 to 4 µg/mL (≈ 2.36 to 9.44 µM)
[3]
  MIC: < 1 µg/mL
[4]; [8]
  MIC: 1 to 4 µg/mL (≈ 2.36 to 9.44 µM)
P. aeruginosa Paeβ-17
  MIC: 8 to 32 µg/mL (≈ 18.9 to 75.5 µM)
[5]; [9]
  MIC: < 1 µg/mL
S. aureus USA 600; [10]
  MIC: 1 to 4 µg/mL (≈ 2.36 to 9.44 µM)

## C[C@@H](O)[C@H]1C(=O)N2C(C(=O)O)=C(S[C@@H]3CCN([C@H]4CC[C@@H](CN)CC4)C3)[C@H](C)[C@H]12 [Example 57, (4R,5S,6S)-3-(((R)-1-((1S,4S)-4-(aminomethyl)cyclohexyl)pyrrolidin-3-yl)thio)-6-((R)-1-hydroxyethyl)-4-methyl-7-oxo-1-azabicyclo[3.2.0]hept-2-ene-2-carboxylic acid]
[1]
  MIC: 1 to 4 µg/mL (≈ 2.36 to 9.44 µM)
S. aureus USA 300; [6]
  MIC: 1 to 4 µg/mL (≈ 2.36 to 9.44 µM)
[2]; [7]
  MIC: 1 to 4 µg/mL (≈ 2.36 to 9.44 µM)
[3]
  MIC: < 1 µg/mL
[4]; [8]
  MIC: 1 to 4 µg/mL (≈ 2.36 to 9.44 µM)
P. aeruginosa Paeβ-17
  MIC: 8 to 32 µg/mL (≈ 18.9 to 75.5 µM)
[5]; [9]
  MIC: < 1 µg/mL
S. aureus USA 600; [10]
  MIC: 1 to 4 µg/mL (≈ 2.36 to 9.44 µM)

## C[C@@H](O)[C@H]1C(=O)N2C(C(=O)O)=C(S[C@@H]3CCN([C@H]4CC[C@H](CN)CC4)C3)[C@H](C)[C@H]12 [Example 58, (4R,5S,6S)-3-(((R)-1-((1R,4R)-4-(aminomethyl)cyclohexyl)pyrrolidin-3-yl)thio)-6-((R)-1-hydroxyethyl)-4-methyl-7-oxo-1-azabicyclo[3.2.0]hept-2-ene-2-carboxylic acid]
[1]
  MIC: 1 to 4 µg/mL (≈ 2.36 to 9.44 µM)
S. aureus USA 300; [6]
  MIC: 1 to 4 µg/mL (≈ 2.36 to 9.44 µM)
[2]; [7]
  MIC: 1 to 4 µg/mL (≈ 2.36 to 9.44 µM)
[3]
  MIC: < 1 µg/mL
[4]; [8]
  MIC: 1 to 4 µg/mL (≈ 2.36 to 9.44 µM)
P. aeruginosa Paeβ-17
  MIC: 8 to 32 µg/mL (≈ 18.9 to 75.5 µM)
[5]; [9]
  MIC: < 1 µg/mL
S. aureus USA 600; [10]
  MIC: 1 to 4 µg/mL (≈ 2.36 to 9.44 µM)
